# According to patent US10301304B2, “Selective inhibitor of phosphatidylinositol 3-kinase-gamma” (VERTEX PHARMACEUTICALS INCORPORATED, priority 2013, dated 2019):
# Where two headings read alike, the source gives them in different places. Marks after values point to notes of the source that are not given here.
# Columns and labels:
# [1] = test system: Caco-2; assay: Permeability in Caco-2 cell line; assay type: in vitro ADME; details: Caco-2, 5 μM, A > B
# Description: (§1) The permeability of Compound 1 was evaluated using both Caco-2 and MadinDarby canine kidney (MDCK) wild-type cell lines. Cells were exposed to drug in buffer on the apical side (measuring permeability in the A-to-B direction) or basolateral side (measuring permeability in the B-to-A direction) and incubated at 37° C. for one hour. Permeability was high in the A-to-B direction in both the MDCK and Caco-2 cell lines (33 and 18×10^−6 cm/sec, respectively).
# [2] = Permeability in Caco-2 cell line; assay type: in vitro ADME; details: human
# Description: as §1
# [3] = target: CYP2C9 (Homo sapiens, UniProt P11712); assay: Metabolism by Recombinant CYP Enzymes; assay type: in vitro ADME; details: 1 μM, recombinant CYP2C9, NADPH
# Description: Microsomes that contained recombinant CYP enzymes (CYP1A2, 2B6, 2C8, 2C9, 2C19, 2D6, 2E1 and 3A4) were used to determine which CYP catalyzes the oxidation of Compound 1. Accordingly, Compound 1 (1 μM) was incubated with individual recombinant CYPs in the presence of the cofactor NADPH. The percent parent drug remaining at the end of the incubation period was determined by LC-MS/MS and compared to that present at the beginning.
# [4] = test system: MCF7 cells; assay: MCF-7 Proliferation Assay; assay type: cell-based, human; details: for IC50: Homo sapiens
# Description: The PI3K-Akt signaling pathway regulates many normal cellular processes including cell proliferation, survival and growth that are critical for tumorigenesis. Dysregulation of the PI3K signaling pathway occurs commonly in human cancers. MCF7 is a human breast carcinoma cell line that has an activating E545K PI3Kα heterozygous mutation in the helical domain of the p110α protein leading to hyperactivity of the PI3K-alpha pathway. […] Compounds are added to MCF7 cells, cell proliferation/viability is measured 96 hours post compound treatment using cell titer-glo to measure the ATP content of the cells in the well. Lack of or reduced proliferation is a measure of the extent of PI3K-alpha inhibition.
# [5] = target: T1, pregnane-X receptor (PXR) (Homo sapiens, UniProt O75469); assay: PXR activation in DPX2 cells; assay type: in vitro ADME
# T1 construct: expressed in transfected cells; host or cells: DPX2 cells (human hepatoma cell line)
# Description: The potential of Compound 1 to activate the pregnane-X receptor (PXR) was evaluated over a range of six concentrations from 0.1-30 μM in DPX2 cells, a human hepatoma cell line that is stably overexpressed with the human PXR gene and a luciferase reporter gene linked to two promoters in the human CYP3A4 gene. Rifampicin was used as a positive control.
# [6] = test system: CYP1A2; assay: CYP1A2 Induction in Human Hepatocytes; assay type: in vitro ADME
# Description: CYP activity was determined by monitoring metabolite formation of specific CYP probe substrates (phenacetin for CYP1A2 and testosterone for CYP3A4) using LC-MS/MS. CYP messenger ribonucleic acid (mRNA) was analyzed by RT-PCR to confirm CYP induction potential.
# [7] = test system: collagen-induced arthritis (CIA); assay: therapeutic mouse collagen-induced arthritis (CIA) model; assay type: in vivo; set-up: Histopathology Summed Score, Knees / Therapeutic Paw Score AUC / Histopathology Summed Score, Six Joints / Histopathology Summed Score, Paws: scale not given here; details: for All Paw Score AUC / Histopathology Summed Score, Knees / Histopathology Summed Score, Paws / Histopathology Summed Score, Six Joints / Prophylactic Paw Score AUC / Therapeutic Paw Score AUC: 10 days; for Arthritis scores measured daily, all paws (FIG. 1): *d2-11, vs vehicle
# Description: Compound 1 was tested in the therapeutic mouse collagen-induced arthritis (CIA) model at 2.5 mg/kg BID (5 mg/kg/day), 5 mg/kg BID (10 mg/kg/day) or 10 mg/kg BID (20 mg/kg/day). Fostamatinib, a Syk small molecule inhibitor used as a reference standard, was dosed orally at 30 mg/kg BID (60 mg/kg/day). Compounds were dosed for 10 days in a 12/12-hour BID dosing regimen until the end of the study. Compound 1 was formulated in 0.2% MC, 1% SLS. Dosing volume was 10 mL/kg. Terminal plasma samples were collected at 2, 4 and 12 hours post last dose. All four paws and both knees were collected and processed for histopathology.
# T1 sequence (O75469 whole entry): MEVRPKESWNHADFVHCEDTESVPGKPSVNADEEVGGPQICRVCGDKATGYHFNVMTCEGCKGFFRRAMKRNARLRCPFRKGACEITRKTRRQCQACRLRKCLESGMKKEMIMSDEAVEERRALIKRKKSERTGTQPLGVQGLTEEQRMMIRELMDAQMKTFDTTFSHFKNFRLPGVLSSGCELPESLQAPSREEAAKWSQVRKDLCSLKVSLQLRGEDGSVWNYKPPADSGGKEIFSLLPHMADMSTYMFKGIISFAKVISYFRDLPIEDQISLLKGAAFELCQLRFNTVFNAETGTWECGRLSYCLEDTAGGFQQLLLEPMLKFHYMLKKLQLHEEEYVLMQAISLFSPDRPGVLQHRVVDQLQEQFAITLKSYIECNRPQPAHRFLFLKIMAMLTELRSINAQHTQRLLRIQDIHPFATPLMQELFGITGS
# CYP2C9, sequence (P11712 whole entry): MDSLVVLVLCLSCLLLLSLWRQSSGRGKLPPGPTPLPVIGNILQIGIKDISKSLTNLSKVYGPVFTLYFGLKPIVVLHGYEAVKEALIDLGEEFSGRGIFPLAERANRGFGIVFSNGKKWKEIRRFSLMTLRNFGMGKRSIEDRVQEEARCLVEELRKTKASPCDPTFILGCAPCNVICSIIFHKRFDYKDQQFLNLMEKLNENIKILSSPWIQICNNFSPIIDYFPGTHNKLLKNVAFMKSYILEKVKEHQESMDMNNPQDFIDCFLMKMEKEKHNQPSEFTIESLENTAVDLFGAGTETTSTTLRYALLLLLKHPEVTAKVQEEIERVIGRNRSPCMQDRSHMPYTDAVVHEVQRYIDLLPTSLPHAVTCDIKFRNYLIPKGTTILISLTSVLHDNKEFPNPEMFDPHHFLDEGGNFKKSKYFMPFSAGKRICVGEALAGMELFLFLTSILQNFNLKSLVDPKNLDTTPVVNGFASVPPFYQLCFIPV
smiles,measurement,setting,value
"Cc1cc(-c2cncc([C@@H](O)C(F)(F)F)c2)nc2c1C(=O)N(c1cnn(CC(F)F)c1)C2(C)C [Compound 1, (R)-6-(1-(2,2-difluoroethyl)-1H-pyrazol-4-yl)-4,7,7-trimethyl-2-(5-(2,2,2-trifluoro-1-hydroxyethyl)pyridin-3-yl)-6,7-dihydro-5H-pyrrolo[3,4-b]pyridin-5-one]",Avg. Papp,[1],32.6 ×10⁻⁶ cm/s
same,"Papp A→B at 1 h, 5 μM","[2]; Caco-2, Caco-2, 5 μM, A > B",18 ×10⁻⁶ cm/s
same,"recovery at 1 h, 5 μM","[2]; Caco-2, Caco-2, 5 μM, A > B",87%
same,"recovery at 1 h, 5 μM","[2]; Caco-2, Caco-2, 5 μM, B > A",96%
same,"efflux ratio at 1 h, 5 μM","[2]; Caco-2, 5 μM",1.9
same,"Papp B→A at 1 h, 5 μM","[2]; Caco-2, 5 μM, B > A",60.7 ×10⁻⁶ cm/s
same,% Parent Remaining @ 30 min,[3],108%
same,IC50,"[4]; MCF7, 96 h, MCF7 Proliferation, 96 hours, PI3K-alpha dependent, read-out: IC50 Avg +/− SD",> 17 µM
same,IC50,"[4]; MCF7, MCF7 Proliferation, footnote **, read-out: Individual assay data (IC50)",15.7 µM
same,selectivity over PI3K-alpha,[4]; MCF7 proliferation,> 67 fold
same,"PXR activation, response relative to positive control","[5]; 0.1-30 μM, Rifampicin positive control",5%
same,EC50,[5]; PXR activation,> 30 µM
same,CYP1A2 mRNA message,"[6]; 0.5 μM, lot 8123",0.6 (0.6)* fold change
same,Phenacetin O-Dealkylation,"[6]; 0.5 μM, lot 8123",0.6 (0.6)* fold change
same,CYP1A2 mRNA message,"[6]; 0.5 μM, lot LMP",0.6 fold change
same,Phenacetin O-Dealkylation,"[6]; 0.5 μM, lot LMP",0.7 fold change
same,CYP1A2 mRNA message,"[6]; 0.5 μM, lot YOW",0.5 fold change
same,Phenacetin O-Dealkylation,"[6]; 0.5 μM, lot YOW",1.1 fold change
same,CYP1A2 mRNA message,"[6]; 1.0 μM, lot 8123",0.5 (0.5) fold change
same,Phenacetin O-Dealkylation,"[6]; 1.0 μM, lot 8123",0.5 (0.5) fold change
same,CYP1A2 mRNA message,"[6]; 1.0 μM, lot LMP",0.6 fold change
same,Phenacetin O-Dealkylation,"[6]; 1.0 μM, lot LMP",0.8 fold change
same,CYP1A2 mRNA message,"[6]; 1.0 μM, lot YOW",0.4 fold change
same,Phenacetin O-Dealkylation,"[6]; 1.0 μM, lot YOW",1.1 fold change
same,CYP1A2 mRNA message,"[6]; 5.0 μM, lot 8123",0.5 fold change
same,Phenacetin O-Dealkylation,"[6]; 5.0 μM, lot 8123",0.8 fold change
same,CYP1A2 mRNA message,"[6]; 5.0 μM, lot LMP",0.7 fold change
same,Phenacetin O-Dealkylation,"[6]; 5.0 μM, lot LMP",0.9 fold change
same,CYP1A2 mRNA message,"[6]; 5.0 μM, lot YOW",0.6 fold change
same,Phenacetin O-Dealkylation,"[6]; 5.0 μM, lot YOW",1.1 fold change
same,CYP1A2 mRNA message,"[6]; 10.0 μM, lot 8123",1.2 fold change
same,Phenacetin O-Dealkylation,"[6]; 10.0 μM, lot 8123",0.7 fold change
same,CYP1A2 mRNA message,"[6]; 10.0 μM, lot LMP",0.8 fold change
same,Phenacetin O-Dealkylation,"[6]; 10.0 μM, lot LMP",1.0 fold change
same,CYP1A2 mRNA message,"[6]; 10.0 μM, lot YOW",1.3 fold change
same,Phenacetin O-Dealkylation,"[6]; 10.0 μM, lot YOW",1.2 fold change
same,CYP1A2 mRNA message,"[6]; 20.0 μM, lot 8123",2.6 fold change
same,Phenacetin O-Dealkylation,"[6]; 20.0 μM, lot 8123",1.2 fold change
same,CYP1A2 mRNA message,"[6]; 20.0 μM, lot LMP",0.7 fold change
same,Phenacetin O-Dealkylation,"[6]; 20.0 μM, lot LMP",1.1 fold change
same,CYP1A2 mRNA message,"[6]; 20.0 μM, lot YOW",0.8 fold change
same,Phenacetin O-Dealkylation,"[6]; 20.0 μM, lot YOW",1.3 fold change
same,Phenacetin O-Dealkylation,"[6]; 30.0 μM, lot 8123",1.3 (NR^2) fold change
same,CYP1A2 mRNA message,"[6]; 30.0 μM, lot LMP",1.4 fold change
same,Phenacetin O-Dealkylation,"[6]; 30.0 μM, lot LMP",1.1 fold change
same,Phenacetin O-Dealkylation,"[6]; 30.0 μM, lot YOW",1.5 (NR^2) fold change
same,"change in CYP1A2 activity and mRNA levels, % of the positive control","[6]; all three hepatocyte lots, 48 hour exposure",less than 20%
same,"reduction of arthritis scores AUC, prophylactic paws only",[7]; 2.5 mg/kg BID,42%
same,"reduction of clinical arthritis scores AUC vs vehicle, all paws",[7]; 2.5 mg/kg BID,28%
same,All Paw Score AUC,[7]; 2.5 mg/kg BID,*22.76
same,"Histopathology Summed Score, Knees",[7]; 2.5 mg/kg BID,6.83
same,"Histopathology Summed Score, Paws",[7]; 2.5 mg/kg BID,8.14
same,"Histopathology Summed Score, Six Joints",[7]; 2.5 mg/kg BID,7.70
same,Prophylactic Paw Score AUC,[7]; 2.5 mg/kg BID,*41.35
same,Therapeutic Paw Score AUC,[7]; 2.5 mg/kg BID,49.25
same,"clinical arthritis scores, prophylactic paws (FIG. 3)","[7]; 2.5 mg/kg BID, *d2, 4-11",significantly reduced
same,"Arthritis scores measured daily, all paws (FIG. 1)",[7]; 2.5 mg/kg BID,significantly reduced toward normal
same,"reduction of arthritis scores AUC, prophylactic paws only",[7]; 5 mg/kg BID,81%
same,"reduction of clinical arthritis scores AUC vs vehicle, all paws",[7]; 5 mg/kg BID,63%
same,All Paw Score AUC,[7]; 5 mg/kg BID,*11.84
same,"Histopathology Summed Score, Knees",[7]; 5 mg/kg BID,*2.53
same,"Histopathology Summed Score, Paws",[7]; 5 mg/kg BID,*3.64
same,"Histopathology Summed Score, Six Joints",[7]; 5 mg/kg BID,*3.27
same,Prophylactic Paw Score AUC,[7]; 5 mg/kg BID,*13.35
same,Therapeutic Paw Score AUC,[7]; 5 mg/kg BID,34.00
same,"clinical arthritis scores, prophylactic paws (FIG. 3)","[7]; 5 mg/kg BID, *d2-11",significantly reduced
same,"Arthritis scores measured daily, all paws (FIG. 1)",[7]; 5 mg/kg BID,significantly reduced toward normal
same,"clinical arthritis scores, therapeutic paws (FIG. 2)","[7]; 5 mg/kg BID, *d5-11",significantly reduced
same,"reduction of arthritis scores AUC, prophylactic paws only",[7]; 10 mg/kg BID,98%
same,"reduction of arthritis scores AUC, therapeutic paws only",[7]; 10 mg/kg BID,79%
same,"reduction of clinical arthritis scores AUC vs vehicle, all paws",[7]; 10 mg/kg BID,89%
same,All Paw Score AUC,[7]; 10 mg/kg BID,*3.34
same,"Histopathology Summed Score, Knees",[7]; 10 mg/kg BID,*0.68
same,"Histopathology Summed Score, Paws",[7]; 10 mg/kg BID,*0.79
same,"Histopathology Summed Score, Six Joints",[7]; 10 mg/kg BID,*0.75
same,Prophylactic Paw Score AUC,[7]; 10 mg/kg BID,*1.60
same,Therapeutic Paw Score AUC,[7]; 10 mg/kg BID,*11.75
same,"clinical arthritis scores, prophylactic paws (FIG. 3)","[7]; 10 mg/kg BID, *d2-11",significantly reduced
same,"clinical arthritis scores, therapeutic paws (FIG. 2)","[7]; 10 mg/kg BID, *d2-11",significantly reduced
same,"Arthritis scores measured daily, all paws (FIG. 1)",[7]; 10 mg/kg BID,significantly reduced toward normal
